Experimental data: the supplement of paper PMC10307832

Tests used:
Assay in all cases: relative viability (nuclei count vs DMSO), 5 days (fraction); higher = more cells survive
BI-D1870 + Pictilisib = compound: CC(C)CCN1c2nc(Nc3cc(F)c(O)c(F)c3)ncc2N(C)C(=O)C1C [BI-D1870] + CS(=O)(=O)N1CCN(Cc2cc3nc(-c4cccc5[nH]ncc45)nc(N4CCOCC4)c3s2)CC1 [Pictilisib] (partner 1 µM)
Procedure, shortened: (§1)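 Cells from lung cancer lines were seeded into 1536-well plates and, one day later, dosed by pin tool. Treatments were either a single drug or a fixed dose of an anchor drug with five library-drug doses (not always all listed) in √10 steps. After 5 days, nuclei were stained in a one-step fixation (final 0.05% Triton X-100, 1% formaldehyde, 1 ug/ml Hoechst) and counted on 4× images, and relative viability is the treated-to-vehicle nuclei ratio, as the median of duplicate plates.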

Zebularine + Phenformin = compound: O=c1ncccn1[C@@H]1O[C@H](CO)[C@@H](O)[C@H]1O [Zebularine] + N=C(N)NC(=N)NCCc1ccccc1 [Phenformin] (partner 250 µM)
Procedure, shortened: as §1

BI-D1870 + AZD7762 = compound: CC(C)CCN1c2nc(Nc3cc(F)c(O)c(F)c3)ncc2N(C)C(=O)C1C [BI-D1870] + NC(=O)Nc1cc(-c2cccc(F)c2)sc1C(=O)N[C@H]1CCCNC1 [AZD7762] (partner 0.2 µM)
Procedure, shortened: as §1

BI-D1870 + Trametinib = compound: CC(C)CCN1c2nc(Nc3cc(F)c(O)c(F)c3)ncc2N(C)C(=O)C1C [BI-D1870] + CC(=O)Nc1cccc(-n2c(=O)n(C3CC3)c(=O)c3c(Nc4ccc(I)cc4F)n(C)c(=O)c(C)c32)c1 [Trametinib] (partner 0.02 µM)
Procedure, shortened: as §1

Cell Line	relative viability (BI-D1870 + Pictilisib; first compound 0.04 µM)	relative viability (BI-D1870 + Pictilisib; first compound 0.1265 µM)	relative viability (BI-D1870 + Pictilisib; first compound 0.4 µM)	relative viability (BI-D1870 + Pictilisib; first compound 1.265 µM)	relative viability (BI-D1870 + Pictilisib; first compound 4 µM)	relative viability (Zebularine + Phenformin; first compound 1 µM)	relative viability (Zebularine + Phenformin; first compound 3.162 µM)	relative viability (Zebularine + Phenformin; first compound 10 µM)	relative viability (Zebularine + Phenformin; first compound 31.62 µM)	relative viability (Zebularine + Phenformin; first compound 100 µM)	relative viability (BI-D1870 + AZD7762; first compound 0.04 µM)	relative viability (BI-D1870 + AZD7762; first compound 0.1265 µM)	relative viability (BI-D1870 + AZD7762; first compound 0.4 µM)	relative viability (BI-D1870 + AZD7762; first compound 1.265 µM)	relative viability (BI-D1870 + AZD7762; first compound 4 µM)	relative viability (BI-D1870 + Trametinib; first compound 0.04 µM)	relative viability (BI-D1870 + Trametinib; first compound 0.1265 µM)	relative viability (BI-D1870 + Trametinib; first compound 0.4 µM)	relative viability (BI-D1870 + Trametinib; first compound 1.265 µM)	relative viability (BI-D1870 + Trametinib; first compound 4 µM)
NCI-H650	0.9	0.745	0.87	0.811	0.651	0.454	0.45	0.409	0.295	0.285	1.14	0.83	0.897	1.17	0.778	0.995	0.82	0.862	0.901	0.904
NCI-H1666	0.655	0.442	0.409	0.584	0.321	0.594	0.551	0.531	0.591	0.495	0.934	0.868	0.778	0.995	0.812	0.847	0.798	0.801	0.882	0.878
NCI-H2085	0.439	0.494	0.413	0.518	0.558	0.761	0.663	0.566	0.673	0.539	1.06	0.972	0.927	0.97	0.771	0.547	0.411	0.576	0.654	0.524
NCI-H1734	0.5	0.401	0.434	0.472	0.358	0.444	0.363	0.26	0.282	0.24	0.635	0.494	0.608	0.72	0.593	0.752	0.549	0.658	0.706	0.632
NCI-H2126	0.556	0.491	0.45	0.461	0.386	0.579	0.473	0.445	0.494	0.435	1.02	1.02	0.95	1.05	0.991	0.557	0.598	0.564	0.546	0.539
EMC-BAC-2	0.626	0.48	0.514	0.637	0.535	0.656	0.569	0.334	0.662	0.516	1.21	1.11	1.05	1.38	1.02	1.05	0.852	0.89	1.13	1.09
NCI-H1993	0.864	0.704	0.769	0.71	0.622	0.556	0.477	0.534	0.449	0.548	0.878	0.682	1.03	0.988	0.471	0.404	0.505	0.621	0.567	0.42
NCI-H647	0.497	0.387	0.444	0.512	0.34	0.539	0.48	0.178	0.22	0.12	0.432	0.502	0.494	0.611	0.479	0.575	0.45	0.533	0.462	0.335
